After the bases stand the sugars from the 5' end (letter, count) and the backbone: PS all phosphorothioate, else s phosphorothioate and o phosphodiester by linkage. Methylation of C is not given here. l = locked nucleic acid (LNA); d = 2'-deoxy (DNA)

This series deals with SNHG14. As to conditions: ASO.
[1] abbreviates: Mouse Primary Neuronal Cell, 0.005 µM.

Consider CCTCAATACTCTACTT (sugars l4 d10 l2, PS), for which the target mRNA inhibition is, setting by setting: (Human Neuronal Cell, 0.2 µM) 43%; (Human Neuronal Cell, 1 µM) 54%.

On to CCTCTGCTTATAACTT (sugars l3 d10 l3, PS), for which the target mRNA inhibition runs as follows: (Human Neuronal Cell, 0.2 µM) 47%; (Human Neuronal Cell, 1 µM) 68%.

For the sequence CCTTAGTATTACAATT (sugars l4 d10 l2, PS), the target mRNA inhibition (Human Neuronal Cell, 0.2 µM) is 58% and the target mRNA inhibition (Human Neuronal Cell, 1 µM) was found to be 71%.

For the sequence “CCTTTAATGCTTCTAAC (sugars l2 d11 l4, PS)”, the target mRNA inhibition runs as follows: (Human Neuronal Cell, 0.2 µM) 35%; (Human Neuronal Cell, 1 µM) 53%.

CCTTTCCAATGAATCT (sugars l3 d10 l3, PS): the target mRNA inhibition (Human Neuronal Cell, 0.2 µM) came out at 45% and the target mRNA inhibition (Human Neuronal Cell, 1 µM) worked out at 60%.

Regarding “CCTTTCCAATGAATCTA (sugars l2 d11 l4, PS)”, the target mRNA inhibition runs as follows: (Human Neuronal Cell, 0.2 µM) 53%; (Human Neuronal Cell, 1 µM) 59%.

On to “CTACATCTCATACTTGC (sugars l2 d13 l2, PS)”, for which the target mRNA inhibition was -11% (Human Neuronal Cell, 0.2 µM); -20% (Human Neuronal Cell, 1 µM); 8% (Human Neuronal Cell, 5 µM); 90.4% under setting [1].

On to CTATTCTCAGTATTAT (sugars l3 d10 l3, PS), for which the target mRNA inhibition is, setting by setting: (Human Neuronal Cell, 0.2 µM) 19%; (Human Neuronal Cell, 1 µM) 13%.

Turning to “CTATTTAATTTACACTT (sugars l3 d11 l3, PS)”, the target mRNA inhibition was 15% (Human Neuronal Cell, 0.2 µM) and 13% (Human Neuronal Cell, 1 µM).

Turning to “CTCAAAGATCATTCTCA (sugars ldlldddddddlddlll, PS)”, the target mRNA inhibition (Human Neuronal Cell, 7.5 µM) came out at 69%.

“CTCATACTTGCTTTAAT (sugars l2 d13 l2, PS)”: the target mRNA inhibition is, setting by setting: (Human Neuronal Cell, 0.2 µM) -18%; (Human Neuronal Cell, 1 µM) 13%; (Human Neuronal Cell, 5 µM) 17%; under setting [1], 84.1%.

On to “CTCCAACATAGATCCTC (sugars l3 d11 l3, PS)”, for which the target mRNA inhibition (Human Neuronal Cell, 0.2 µM) is 52% and the target mRNA inhibition (Human Neuronal Cell, 1 µM) amounted to 60%.

As to “CTCTCCTCAAGATCAAC (sugars l3 d11 l3, PS)”, the target mRNA inhibition was determined as 23% (Human Neuronal Cell, 0.2 µM) and 42% (Human Neuronal Cell, 1 µM).

With CTCTGCTTATAACTTT (sugars l4 d10 l2, PS), the target mRNA inhibition (Human Neuronal Cell, 0.2 µM) came to 20% and the target mRNA inhibition (Human Neuronal Cell, 1 µM) was 53%.

In the case of “CTGCCATCTTTATTTAT (sugars l4 d11 l2, PS)”, the target mRNA inhibition is, setting by setting: (Human Neuronal Cell, 0.2 µM) 5%; (Human Neuronal Cell, 1 µM) 9%.

Regarding CTGTACACAATCAACA (sugars l4 d10 l2, PS), the target mRNA inhibition by setting is: (Human Neuronal Cell, 0.2 µM) 54%; (Human Neuronal Cell, 1 µM) 63%.

Regarding CTGTATACACCATCCC (sugars l2 d12 l2, PS), the target mRNA inhibition (Human Neuronal Cell, 0.2 µM) was 62% and the target mRNA inhibition (Human Neuronal Cell, 1 µM) is 62%.

In the case of “CTGTATACACCATCCCA (sugars l1 d1 l1 d12 l2, PS)”, the target mRNA inhibition (Human Neuronal Cell, 7.5 µM) worked out at 48%.

As for “CTGTATACACCATCCCA (sugars l1 d11 l2 d1 l2, PS)”, the target mRNA inhibition (Human Neuronal Cell, 7.5 µM) is 53%.

As for “CTGTATACACCATCCCA (sugars ldlddddddddddldll, PS)”, where the note is “Human Neuronal Cell, 7.5 µM”, the target mRNA inhibition was 62%.

Regarding “CTGTATACACCATCCCA (sugars ldldlddddddddldll, PS)”, where the note is “Human Neuronal Cell, 7.5 µM”, the target mRNA inhibition was found to be 62%.

Take “CTGTTTATACCCTTTCCA (sugars l1 d3 l1 d11 l2, PS)”: the target mRNA inhibition (Human Neuronal Cell, 7.5 µM) stood at 50%.

With CTTACCAATAGTTACC (sugars l4 d10 l2, PS), the target mRNA inhibition was 45% (Human Neuronal Cell, 0.2 µM) and 65% (Human Neuronal Cell, 1 µM).

Turning to “CTTAGACTTCACCTTTC (sugars l2 d11 l4, PS)”, the target mRNA inhibition is, setting by setting: (Human Neuronal Cell, 0.2 µM) 49%; (Human Neuronal Cell, 1 µM) 41%.

Take CTTCAAGAATTCTCTC (sugars l2 d10 l4, PS): the target mRNA inhibition is, setting by setting: (Human Neuronal Cell, 0.2 µM) 44%; (Human Neuronal Cell, 1 µM) 43%.

Turning to CTTGACTACACATCTT (sugars l3 d10 l3, PS), the target mRNA inhibition by setting is: (Human Neuronal Cell, 0.2 µM) 50%; (Human Neuronal Cell, 1 µM) 54%.

Regarding “CTTTCCATTTATTTCCATT (sugars lddddldddddddddldll, PS)”, the target mRNA inhibition (Human Neuronal Cell, 7.5 µM) turned out to be 59%.

Turning to “CTTTCCATTTATTTCCATTT (sugars ldddddddddddddldldll, PS)”, where the note is “Human Neuronal Cell, 7.5 µM”, the target mRNA inhibition came out at 47%.

In the case of CTTTTAACCAGAGTG (sugars l4 d7 l4, PS), for the setting “Human Neuronal Cell, 7.5 µM”, the target mRNA inhibition was 54%.

As to CTTTTAACCAGAGTGG (sugars l4 d9 l3, PS), the target mRNA inhibition (Human Neuronal Cell, 7.5 µM) came out at 65%.

Regarding “CTTTTAACCAGAGTGGCAT (sugars l3 d13 l3, PS)”, the target mRNA inhibition (Human Neuronal Cell, 7.5 µM) came out at 62%.

With “GAAAATCTCAACTACCATT (sugars l2 d1 l2 d10 l4, PS)”, under “Human Neuronal Cell, 7.5 µM”, the target mRNA inhibition was 60%.

Regarding “GAAAATCTCAACTACCATT (sugars l2 d12 l5, PS)”, the target mRNA inhibition (Human Neuronal Cell, 7.5 µM) came to 49%.

With “GAAAATCTCAACTACCATT (sugars l4 d10 l1 d1 l3, PS)”, the target mRNA inhibition (Human Neuronal Cell, 7.5 µM) came out at 45%.

For the sequence “GAAAATCTCAACTACCATT (sugars ldllddddddddldldlll, PS)”, where the note is “Human Neuronal Cell, 7.5 µM”, the target mRNA inhibition came out at 57%.

As for GAACAACTTCTATCAT (sugars l2 d10 l4, PS), the target mRNA inhibition is, setting by setting: (Human Neuronal Cell, 0.2 µM) 16%; (Human Neuronal Cell, 1 µM) 28%.

In the case of “GAATTCTTTATTCCTCC (sugars l2 d11 l4, PS)”, the target mRNA inhibition is, setting by setting: (Human Neuronal Cell, 0.2 µM) 45%; (Human Neuronal Cell, 1 µM) 41%.

On to GATAATTCCAAATCCC (sugars l2 d10 l4, PS), for which the target mRNA inhibition runs as follows: (Human Neuronal Cell, 0.2 µM) 16%; (Human Neuronal Cell, 1 µM) 6%.

In the case of “GATCATTCTCAACAATT (sugars l2 d1 l2 d6 l6, PS)”, under “Human Neuronal Cell, 7.5 µM”, the target mRNA inhibition came out at 10%.

With “GCAACATTATTAACCACCT (sugars ldddddddddddldlddll, PS)”, under “Human Neuronal Cell, 7.5 µM”, the target mRNA inhibition is 41%.

As to “GCAACATTATTAACCACCT (sugars ldldldddddddlddddll, PS)”, the target mRNA inhibition (Human Neuronal Cell, 7.5 µM) is 52%.

In the case of “GCAACATTATTAACCACCT (sugars ldlldlddddddlddldll, PS)”, the target mRNA inhibition (Human Neuronal Cell, 7.5 µM) stood at 44%.

Take “GCACATTCTTTCTATAC (sugars l2 d1 l1 d11 l2, PS)”: the target mRNA inhibition (Human Neuronal Cell, 7.5 µM) was 61%.

On to “GCACATTCTTTCTATACC (sugars l1 d4 l1 d9 l3, PS)”, for which the target mRNA inhibition (Human Neuronal Cell, 7.5 µM) came to 59%.

With “GCACATTCTTTCTATACC (sugars l1 d4 l1 d10 l2, PS)”, where the note is “Human Neuronal Cell, 7.5 µM”, the target mRNA inhibition worked out at 45%.

As for “GCACATTCTTTCTATACC (sugars l1 d12 l1 d2 l2, PS)”, the target mRNA inhibition (Human Neuronal Cell, 7.5 µM) came out at 47%.

“GCACATTCTTTCTATACC (sugars ldldldddddddddddll, PS)”: the target mRNA inhibition (Human Neuronal Cell, 7.5 µM) stood at 61%.

As to “GCACATTCTTTCTATACCT (sugars ldldlddddddddddddll, PS)”, the target mRNA inhibition (Human Neuronal Cell, 7.5 µM) worked out at 57%.

On to GCCAATACCCACAAAC (sugars l3 d10 l3, PS), for which the target mRNA inhibition stood at 11% (Human Neuronal Cell, 0.2 µM) and 33% (Human Neuronal Cell, 1 µM).

In the case of “GCTCCATATTTAAATCC (sugars l4 d11 l2, PS)”, the target mRNA inhibition (Human Neuronal Cell, 0.2 µM) came to 20% and the target mRNA inhibition (Human Neuronal Cell, 1 µM) is 45%.

With GCTTCATATTTCTCCA (sugars l2 d12 l2, PS), the target mRNA inhibition (Human Neuronal Cell, 0.2 µM) is 57%.

For the sequence GCTTCTACTTAAATAT (sugars l3 d10 l3, PS), the target mRNA inhibition is 27% (Human Neuronal Cell, 0.2 µM) and 21% (Human Neuronal Cell, 1 µM).

As for GCTTTTAACCAGAGTG (sugars l4 d10 l2, PS), the target mRNA inhibition (Human Neuronal Cell, 7.5 µM) was found to be 72%.

On to “GCTTTTAACCAGAGTGGC (sugars l1 d14 l3, PS)”, for which the target mRNA inhibition (Human Neuronal Cell, 7.5 µM) was 63%.

On to “GTCATCTAACTTCTTAC (sugars l3 d11 l3, PS)”, for which the target mRNA inhibition amounted to 45% (Human Neuronal Cell, 0.2 µM) and 46% (Human Neuronal Cell, 1 µM).

As for GTTACCTACATCTCAT (sugars l2 d12 l2, PS), the target mRNA inhibition was -6% (Human Neuronal Cell, 0.2 µM); 20% (Human Neuronal Cell, 1 µM); 31% (Human Neuronal Cell, 5 µM); 84.2% under setting [1].

Regarding GTTACCTACATCTCAT (sugars l3 d10 l3, PS), the target mRNA inhibition came out at 3% (Human Neuronal Cell, 0.2 µM); 32% (Human Neuronal Cell, 1 µM); 18% (Human Neuronal Cell, 5 µM); 93.4% under setting [1].

“GTTACCTACATCTCATA (sugars l2 d11 l4, PS)”: the target mRNA inhibition reads like this: (Human Neuronal Cell, 0.2 µM) -4%; (Human Neuronal Cell, 1 µM) 10%; (Human Neuronal Cell, 5 µM) 21%; under setting [1], 92%.

For “GTTCTACTATACTTTCCT (sugars l1 d15 l2, PS)”, the target mRNA inhibition (Human Neuronal Cell, 7.5 µM) is -8%.

As to “GTTCTACTATACTTTCCTC (sugars l1 d14 l1 d1 l2, PS)”, the target mRNA inhibition (Human Neuronal Cell, 7.5 µM) was found to be 54%.

With “GTTTATACCCTTTCCAA (sugars l3 d11 l3, PS)”, the target mRNA inhibition (Human Neuronal Cell, 0.2 µM) was 57% and the target mRNA inhibition (Human Neuronal Cell, 1 µM) was found to be 63%.

As for “GTTTATACCCTTTCCAAT (sugars l1 d12 l2 d1 l2, PS)”, the target mRNA inhibition (Human Neuronal Cell, 7.5 µM) is 54%.

As for “GTTTATACCCTTTCCAAT (sugars l2 d11 l1 d2 l2, PS)”, for the setting “Human Neuronal Cell, 7.5 µM”, the target mRNA inhibition came out at 67%.

On to “GTTTCCATCTACTATTAA (sugars l1 d11 l2 d1 l3, PS)”, for which the target mRNA inhibition (Human Neuronal Cell, 7.5 µM) was 52%.

As for “GTTTCCATCTACTATTAAT (sugars ldddlddddddddlddlll, PS)”, the target mRNA inhibition (Human Neuronal Cell, 7.5 µM) came to 58%.

Regarding “GTTTCCATCTACTATTAAT (sugars ldddldddddddldldlll, PS)”, the target mRNA inhibition (Human Neuronal Cell, 7.5 µM) came out at 63%.

“GTTTCCATCTACTATTAAT (sugars llddlddddddddddldll, PS)”: the target mRNA inhibition (Human Neuronal Cell, 7.5 µM) came to 59%.

On to “TAAAATTATTTATACACCA (sugars ldlldldddddddllllll, PS)”, for which the target mRNA inhibition (Human Neuronal Cell, 7.5 µM) turned out to be 39%.

As to “TAAAATTATTTATACACCAT (sugars l2 d1 l2 d11 l4, PS)”, the target mRNA inhibition (Human Neuronal Cell, 7.5 µM) was found to be 49%.

Consider “TAAAATTATTTATACACCAT (sugars lddlddlddddddlldllll, PS)”, for which the target mRNA inhibition (Human Neuronal Cell, 7.5 µM) came to 2%.

For the sequence “TACACTTAATTATACTTCCA (sugars l1 d4 l1 d11 l3, PS)”, under “Human Neuronal Cell, 7.5 µM”, the target mRNA inhibition came to 53%.

For the sequence “TACACTTAATTATACTTCCA (sugars lddlddlddddddlddddll, PS)”, the target mRNA inhibition (Human Neuronal Cell, 7.5 µM) amounted to 61%.

Regarding TACATCTCATACTTGC (sugars l4 d10 l2, PS), the target mRNA inhibition under setting [1] was found to be 97%.

Consider TACCAATAGTTACCTT (sugars l2 d10 l4, PS), for which the target mRNA inhibition reads like this: (Human Neuronal Cell, 0.2 µM) 30%; (Human Neuronal Cell, 1 µM) 49%.

The record behind these values is the OligoGym collection.
